Results published in patent publication US10787444B2, “Compounds for the modulation of myc activity” (Syros Pharmaceuticals, Inc., priority 2015, dated 2020).
Structures can show the parent of a compound that is named as a salt.

These compounds were tested against T1, c-Myc/Max/Ebox DNA (Homo sapiens, UniProt P01106) (assay: c-Myc/Max/Ebox DNA AlphaScreen Assay). Conditions: Table 2, compounds of FIG. 1; calculated IC50 class.
T1 construct: his6 (cleaved yes)
T1 sequence (P01106 whole entry): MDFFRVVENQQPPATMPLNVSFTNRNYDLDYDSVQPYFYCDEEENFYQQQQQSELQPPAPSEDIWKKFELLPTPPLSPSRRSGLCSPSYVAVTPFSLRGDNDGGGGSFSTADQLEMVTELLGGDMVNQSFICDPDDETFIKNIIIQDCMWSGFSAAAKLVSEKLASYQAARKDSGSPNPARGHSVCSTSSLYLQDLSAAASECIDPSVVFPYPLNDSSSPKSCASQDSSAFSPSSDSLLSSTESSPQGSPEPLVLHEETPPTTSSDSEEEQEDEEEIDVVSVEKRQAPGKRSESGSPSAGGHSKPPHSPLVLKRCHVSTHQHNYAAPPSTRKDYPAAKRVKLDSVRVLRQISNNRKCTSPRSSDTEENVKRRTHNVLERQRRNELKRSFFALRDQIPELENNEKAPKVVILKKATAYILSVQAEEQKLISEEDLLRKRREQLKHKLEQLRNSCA
Format: binding
Procedure: Compounds of the invention were assayed for c-Myc/Max/EBox activity as described in the following protocol. Human his6-c-Myc and his6-Max were used with biotinylated DNA containing a single Ebox sequence (biotin[…]) purchased from MWG Operon. Free c-Myc was generated from his6-c-Myc through thrombin cleavage of the his6 tag. For 384-well plate assays, 10 μL of a 2× solution of free c-Myc (20 nM final), Ni^2+ coated Acceptor Beads (25 μg/ml final), and biotinylated Ebox oligo (10 nM final) were added to 384-well plates with a Biotek EL406 liquid handler. 50 nL of compounds from stock plates were added by pin transfer using a Janus Workstation (PerkinElmer), allowing the compounds to interact with c-Myc prior to c-Myc binding with Max. In the current assay, DMSO was not allowed to exceed 2% v/v of the assay. 10 μl of 2× master mix containing streptavidin-coated donor beads (25 μg/ml final) and his6-Max (5 nM) were added. AlphaScreen measurements were performed on an Envision plate reader (PerkinElmer) utilizing the manufacturer's protocol.
Both master mixes were made in room temperature assay buffer (50 mM HEPES, 150 mM NaCl, 0.2% w/v BSA, 0.02% w/v Tween20, 40 μg/ml glycogen, 500 μM DTT, pH 8.0, wherein both DTT and glycogen were added fresh). Alpha beads were added to respective master solutions. All subsequent steps were performed in low light conditions. Solution 1:2× solution of components with final concentrations of c-Myc Ni-coated Acceptor Beads (25 μg/ml), and biotinylated Ebox oligo (10 nM). Solution 2:2× solution of streptavidin-coated donor beads (25 μg/ml final) and his6-Max 10 μL. […] 50 nL of compounds from stock plates were added by pin transfer using a Janus Workstation. Solution 2 (10 μl) was added with the liquid handler. Plates were sealed with foil to block light exposure and prevent evaporation. Plates were very briefly centrifuged followed by 2 hour incubation. […] Excitation was at 680 nm for donor bead release of singlet oxygen and emission was read with a bandpass filter from 520-620 nm.
For `COCCNCCC(=O)Nc1sc2c(c1-c1nc3ccc(-c4ccncc4)cc3s1)CC(C)NC2C` (single isomer, unassigned) [Compound 518, N-(5,7-Dimethyl-3-(6-(pyridin-4-yl)benzo[d]thiazol-2-yl)-4,5,6,7-tetrahydrothieno[2,3-c]pyridin-2-yl)-3-((2-methoxyethyl)amino)propanamide], the IC50 was 1000 to 10000 nM.
For `CC(C)N1CCc2c(sc(NC(=O)CCNCCc3ccccc3Cl)c2-c2nc3ccccc3s2)C1` [Compound 109, N-(3-(benzo[d]thiazol-2-yl)-6-isopropyl-4,5,6,7-tetrahydrothieno[2,3-c]pyridin-2-yl)-3-((2-chlorophenethyl)amino)propanamide], the IC50 was over 10000 nM.
Work on `CC(C)N1CCc2c(sc(NC(=O)CCNCCCOCCOCCOCCCN)c2-c2nc3ccccc3s2)C1` [Compound 120, 1-amino-N-(3-(benzo[d]thiazol-2-yl)-6-isopropyl-4,5,6,7-tetrahydrothieno[2,3-c]pyridin-2-yl)-4,7,10-trioxa-14-azaheptadecan-17-amide] yielded an IC50 of under 300 nM.
With `CCOC(=O)CNCCC(=O)Nc1sc2c(c1-c1nc3ccccc3s1)CCN(C(C)C)C2` [Compound 138, Ethyl (3-((3-(benzo[d]thiazol-2-yl)-6-isopropyl-4,5,6,7-tetrahydrothieno[2,3-c]pyridin-2-yl)amino)-3-oxopropyl)glycinate] the IC50 was 300 to 1000 nM.
Work on `CCC(C)NCCC(=O)Nc1sc2c(c1-c1nc3cc(Br)ccc3s1)CCNC2` (stereo not drawn) [Compound 139, N-(3-(5-bromobenzo[d]thiazol-2-yl)-4,5,6,7-tetrahydrothieno[2,3-c]pyridin-2-yl)-3-(sec-butylamino)propanamide] yielded an IC50 of under 300 nM.
For `O=C(O)CNCCC(=O)Nc1sc2c(c1-c1nc3ccccc3s1)CCNC2` [Compound 166, (3-((3-(benzo[d]thiazol-2-yl)-4,5,6,7-tetrahydrothieno[2,3-c]pyridin-2-yl)amino)-3-oxopropyl)glycine], the IC50 was 300 to 1000 nM.
With `O=C(CCNCc1cn[nH]c1)Nc1sc2c(c1-c1nc3ccccc3s1)CCNC2` [Compound 167, 3-(((1H-pyrazol-4-yl)methyl)amino)-N-(3-(benzo[d]thiazol-2-yl)-4,5,6,7-tetrahydrothieno[2,3-c]pyridin-2-yl)propanamide] the IC50 was under 300 nM.
`CC(C)N1CCc2c(sc(NC(=O)CCNCC(=O)O)c2-c2nc3ccccc3s2)C1` [Compound 168, (3-((3-(benzo[d]thiazol-2-yl)-6-isopropyl-4,5,6,7-tetrahydrothieno[2,3-c]pyridin-2-yl)amino)-3-oxopropyl)glycine] showed an IC50 of 300 to 1000 nM.
Compound `Cc1cccc2oc(-c3c(NC(=O)CCNC(C)C)sc4c3CCNC4)nc12` [Compound 311, 3-(Isopropylamino)-N-(3-(4-methylbenzo[d]oxazol-2-yl)-4,5,6,7-tetrahydrothieno[2,3-c]pyridin-2-yl)propanamide dihydrochloride] has an IC50 of 300 to 1000 nM.
Compound `COCCNCCC(=O)Nc1sc2c(c1-c1nc3ccccc3s1)C[C@H](C)NC2` [Compound 538, (S)—N-(3-(Benzo[d]thiazol-2-yl)-5-methyl-4,5,6,7-tetrahydrothieno[2,3-c]pyridin-2-yl)-3-((2-methoxyethyl)amino)propanamide] has an IC50 of 300 to 1000 nM.
“N-(3-(Benzo[d]thiazol-2-yl)-6-isopropyl-4,5,6,7-tetrahydrothieno[2,3-c]pyridin-2-yl)-3-(isobutylamino)propanamide [Compound 552]” was tested, and the IC50 was over 10000 nM.
Compound “N-((5S,7R)-5,7-dimethyl-3-(5-(pyridin-4-yl)benzo[d]thiazol-2-yl)-4,5,6,7-tetrahydrothieno[2,3-c]pyridin-2-yl)-3-((2-methoxyethyl)amino)propanamide [Compound 532]” has an IC50 of 1000 to 10000 nM.

Same assay, conditions: Table 3, compounds of FIG. 2; calculated IC50 class
`CC(=O)Nc1sc2c(c1-c1nc3ccccc3s1)[C@H](C)CN(C(C)C)C2` [Compound 207, (S)—N-(3-(benzo[d]thiazol-2-yl)-6-isopropyl-4-methyl-4,5,6,7-tetrahydrothieno[2,3-c]pyridin-2-yl)acetamide] showed an IC50 of 1000 to 10000 nM.
`CC(=O)Nc1sc2c(c1-c1nc3ccccc3s1)[C@@H](C)CN(C(C)C)C2` [Compound 208, (R)—N-(3-(benzo[d]thiazol-2-yl)-6-isopropyl-4-methyl-4,5,6,7-tetrahydrothieno[2,3-c]pyridin-2-yl)acetamide] was tested, and the IC50 was 1000 to 10000 nM.
Compound `CC(=O)Nc1sc2c(c1-c1nc3ccccc3s1)CC(C)NC2` (stereo not drawn) [Compound 209, N-(3-(benzo[d]thiazol-2-yl)-5-methyl-4,5,6,7-tetrahydrothieno[2,3-c]pyridin-2-yl)acetamide] has an IC50 of 1000 to 10000 nM.
With `CC(=O)Nc1sc2c(c1-c1nc3ccccc3s1)CCNC2C` (stereo not drawn) [Compound 210, N-(3-(benzo[d]thiazol-2-yl)-7-methyl-4,5,6,7-tetrahydrothieno[2,3-c]pyridin-2-yl)acetamide] the IC50 was 1000 to 10000 nM.
`CCN1[C@H](C)Cc2c(sc(NC(C)=O)c2-c2nc3ccccc3s2)[C@@H]1C` [Compound 211, N-(3-(benzo[d]thiazol-2-yl)-6-ethyl-5,7-dimethyl-4,5,6,7-tetrahydrothieno[2,3-c]pyridin-2-yl)acetamide] gave an IC50 of 1000 to 10000 nM.
With `CC(=O)Nc1sc2c(c1-c1nc3ccccc3s1)C(C)CCNC2` (stereo not drawn) [Compound 212, N-(3-(benzo[d]thiazol-2-yl)-4-methyl-5,6,7,8-tetrahydro-4H-thieno[2,3-c]azepin-2-yl)acetamide] the IC50 was over 10000 nM.
Compound `CC(=O)Nc1sc2c(c1-c1nc3ccccc3s1)C(C)CCN(C(C)C)C2` (stereo not drawn) [Compound 213, N-(3-(benzo[d]thiazol-2-yl)-7-isopropyl-4-methyl-5,6,7,8-tetrahydro-4H-thieno[2,3-c]azepin-2-yl)acetamide] has an IC50 of over 10000 nM.
In the case of `CC(=O)Nc1sc2c(c1-c1nc3ccccc3s1)CCNC2C(F)(F)F` (stereo not drawn) [Compound 214, N-(3-(benzo[d]thiazol-2-yl)-7-(trifluoromethyl)-4,5,6,7-tetrahydrothieno[2,3-c]pyridin-2-yl)acetamide], the IC50 is reported as over 10000 nM.
Work on `CC(=O)Nc1sc2c(c1-c1nc3ccccc3s1)CC(C(F)(F)F)NC2` (stereo not drawn) [Compound 215, N-(3-(benzo[d]thiazol-2-yl)-5-(trifluoromethyl)-4,5,6,7-tetrahydrothieno[2,3-c]pyridin-2-yl)acetamide] yielded an IC50 of over 10000 nM.
With `CC(=O)Nc1sc2c(c1-c1nc3ccccc3s1)CCN(C(C)C)C2C` (stereo not drawn) [Compound 216, N-(3-(benzo[d]thiazol-2-yl)-6-isopropyl-7-methyl-4,5,6,7-tetrahydrothieno[2,3-c]pyridin-2-yl)acetamide] the IC50 was over 10000 nM.
For `CC(=O)Nc1sc2c(c1-c1nc3ccccc3s1)CCC(NC(C)=O)C2` (stereo not drawn) [Compound 222, N,N′-(3-(benzo[d]thiazol-2-yl)-4,5,6,7-tetrahydrobenzo[b]thiophene-2,6-diyl)diacetamide], the IC50 was over 10000 nM.
Work on `CC(=O)Nc1sc2c(c1-c1nc3ccccc3s1)CCC(NC1CCN(C(=O)OC(C)(C)C)CC1)C2` (stereo not drawn) [Compound 228, tert-butyl 4-((2-acetamido-3-(benzo[d]thiazol-2-yl)-4,5,6,7-tetrahydrobenzo[b]thiophen-6-yl)amino)piperidine-1-carboxylate] yielded an IC50 of over 10000 nM.

These compounds were tested on human small lung cancer cell line H2171 (assay: Cell Viability Assay (ATPlite)). Conditions: Homo sapiens, NCI-H2171, 72 h, Table 2, compounds of FIG. 1; H2171 cells, three days, ATPlite; calculated IC50 class; read-out: H2171 Activity.
Format: cell-based
Procedure: Compounds of the invention were assayed for cell viability using the human small lung cancer cell line H2171 as described in the following protocol. Cells were counted and adjusted to 20,000 cells/mL. Using a Biotek EL406, 50 μL of cells in media were distributed into 384 well white plates from Thermo. Immediately after plating, compound in DMSO was distributed to plates. Compounds were added to plates using a 50 nL 384 well pin transfer manifold on a Janus workstation. Stocks were arrayed in 10 point dose response in DMSO stock in 384 well Greiner compound plates. After the addition of compounds, plates were incubated for three days in a 37° C. incubator. Cell viability was read out using ATPlite from Perkin Elmer. Lyophilized powder was resuspended in lysis buffer and diluted 1:2 with deionized water. 25 μL of this solution was added to each well using the Biotek liquid handler. Plates were incubated for 15 minutes at room temperature before signal was read on an Envision Plate Reader. The data from this assay are summarized in Tables 2 and 3 below (H2171 activity).
`CCC(C)NCCC(=O)Nc1sc2c(c1-c1nc3cc(Br)ccc3s1)CCN(C(C)C)C2` (stereo not drawn) [Compound 141, N-(3-(5-bromobenzo[d]thiazol-2-yl)-6-isopropyl-4,5,6,7-tetrahydrothieno[2,3-c]pyridin-2-yl)-3-(sec-butylamino)propanamide] gave an IC50 of 300 to 1000 nM.
With `Cn1cc(CNCCC(=O)Nc2sc3c(c2-c2nc4ccccc4s2)CCNC3)cn1` [Compound 143, N-(3-(benzo[d]thiazol-2-yl)-4,5,6,7-tetrahydrothieno[2,3-c]pyridin-2-yl)-3-(((1-methyl-1H-pyrazol-4-yl)methyl)amino)propanamide] the IC50 was under 300 nM.

Same assay, conditions: Table 2, compounds of FIG. 1; H2171 cells, three days, ATPlite; calculated IC50 class; read-out: H2171 Activity
For `CCC(C)NCCC(=O)Nc1sc2c(c1-c1nc3cc(Br)ccc3s1)CCN(C(C)C)C2` (stereo not drawn) [Compound 145, N-(3-(5-Bromobenzo[d]thiazol-2-yl)-6-isopropyl-4,5,6,7-tetrahydrothieno[2,3-c]pyridin-2-yl)-3-(sec-butylamino)propanamide], the IC50 was 300 to 1000 nM.
